# Results from patent US20040228889A1, “Use of N-arylmethylene ethylenediaminetriacetates, N-arylmethylene iminodiacetated or N,N'-diarylmethylene ethylenediamineacetates as doners of NO” (L'OREAL S.A., priority 2003, published 2004).
# How the values were obtained:
# [1] = target: T1, inducible NO synthase (NOS2) (Homo sapiens, UniProt P35228); assay: screening test of the modulation of induction of NOS2 by normal human keratinocytes (nitrite and nitrate measurement); format: cell-based; settings: for % inhibition: cytokine-induced normal human keratinocytes, nitrites and nitrates
# T1 construct: endogenous in cells; host or cells: normal human keratinocytes (primary culture), induced with interferon-gamma and interleukin 1-beta
# Protocol: The activity of N,N′-bis-(3,4,5-trimethoxybenzyl) ethylenediamine-diacetic acid on the inducible NO synthase was evaluated in the assay described by Heck et al. (J.B.C., vol. 267, No. 30, 21277-21280, 25 Oct. 1992), a screening test of the modulation of induction of NOS2 by normal human keratinocytes. The objective of this test is, briefly, to evaluate the concentration of nitrate and nitrite after stimulation of the NO-synthase 2.
# The test is carried out on a culture of normal human keratinocytes, derived from samples taken. The induction of the inducible NO synthase (NOS2) was caused by the addition of a combination of several cytokines to the culture medium. The product tested was applied at three concentrations varying from 10 to 1000 μM.
# The product tested was classed in one of the following two categories: inhibitor (I) or donor (D) of NO (nitric oxide) according to its capacity to diminish or increase, respectively, the quantity of nitrites and nitrates produced compared to the control signal […].
# The following controls were introduced in the test:
# A: positive control (induction of the enzyme): mixtures of interferon-γ(1000 u/ml) and interleukin 1-β (100 u/ml)
# In order to determine the activity of the test product the quantity of stable NO reaction products (nitrites and nitrates) is measured with the aid of the “nitric colorimetric assay” kit sold by the Boehringer company under catalogue number 1756.28.
# N,N′-bis(3,4,5-trimethoxybenzyl) ethylenediamine-diacetic acid was tested at concentrations of 100 μM, 500 μM and 1000 μM in ethanol.
# [2] = test system: normal human keratinocytes; assay: cytotoxicity, % diminution of the signal compared with the control; format: cell-based; settings: concentration equal to or lower than 500 μM
# From the text: Moreover, the cytotoxicity was expressed as % diminution of the signal compared with the control. A product was considered not to be very cytotoxic from 0-20%, acceptable up to 40% and not retained for values >40%.
# T1 sequence (P35228 whole entry): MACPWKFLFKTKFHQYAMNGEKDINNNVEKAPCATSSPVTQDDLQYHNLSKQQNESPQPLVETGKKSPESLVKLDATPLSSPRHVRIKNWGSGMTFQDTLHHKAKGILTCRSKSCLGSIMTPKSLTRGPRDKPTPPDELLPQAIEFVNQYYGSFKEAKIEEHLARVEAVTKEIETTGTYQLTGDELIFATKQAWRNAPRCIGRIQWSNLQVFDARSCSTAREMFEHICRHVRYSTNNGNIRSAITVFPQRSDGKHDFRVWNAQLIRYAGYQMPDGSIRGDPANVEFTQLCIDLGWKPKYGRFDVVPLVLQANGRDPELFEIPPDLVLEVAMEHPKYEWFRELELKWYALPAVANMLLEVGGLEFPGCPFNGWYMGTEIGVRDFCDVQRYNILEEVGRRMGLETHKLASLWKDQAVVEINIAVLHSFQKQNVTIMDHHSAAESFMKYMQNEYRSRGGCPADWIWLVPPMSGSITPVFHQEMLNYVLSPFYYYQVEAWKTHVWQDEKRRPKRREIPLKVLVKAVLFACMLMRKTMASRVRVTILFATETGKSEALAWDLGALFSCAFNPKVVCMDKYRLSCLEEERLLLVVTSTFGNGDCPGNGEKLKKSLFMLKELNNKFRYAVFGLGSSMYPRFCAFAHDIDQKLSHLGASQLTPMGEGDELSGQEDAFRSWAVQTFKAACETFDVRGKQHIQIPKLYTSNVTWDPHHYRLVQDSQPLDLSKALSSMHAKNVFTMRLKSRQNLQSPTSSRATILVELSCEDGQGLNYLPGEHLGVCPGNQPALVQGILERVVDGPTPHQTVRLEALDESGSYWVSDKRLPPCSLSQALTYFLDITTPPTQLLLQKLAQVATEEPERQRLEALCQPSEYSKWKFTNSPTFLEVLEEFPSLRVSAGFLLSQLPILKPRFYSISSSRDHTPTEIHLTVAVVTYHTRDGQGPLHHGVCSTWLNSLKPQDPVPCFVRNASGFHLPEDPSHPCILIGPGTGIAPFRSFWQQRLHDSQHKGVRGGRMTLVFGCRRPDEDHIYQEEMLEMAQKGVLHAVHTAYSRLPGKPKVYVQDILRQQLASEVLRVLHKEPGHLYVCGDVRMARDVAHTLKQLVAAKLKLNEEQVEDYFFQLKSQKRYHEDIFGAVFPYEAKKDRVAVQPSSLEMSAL
structure (smiles),measurement,setting,value
"COc1cc(CN(CCN(CC(=O)O)Cc2cc(OC)c(OC)c(OC)c2)CC(=O)O)cc(OC)c1OC [N,N′-bis-(3,4,5-trimethoxybenzyl) ethylenediamine-diacetic acid]",classification as inhibitor (I) or donor (D) of NO,[1]; quantity of nitrites and nitrates produced compared to the control signal,NO donor effect
same,% inhibition,[1]; test product 100 μM in ethanol,29%
same,% inhibition,[1]; test product 500 μM in ethanol,70%
same,% inhibition,[1]; test product 1000 μM in ethanol,84%
same,cytotoxicity,[2],not toxic
